No end group written: not given here.

These results are taken from paper PMC7481357, “N-terminal Myristoylation Enhanced the Antimicrobial Activity of Antimicrobial Peptide PMAP-36PW” (Frontiers in Cellular and Infection Microbiology, 2020).

The test system of assay [1] is S. aureus ATCC 25923. Format: cell-based, Staphylococcus aureus. To be noted: for MICs of different classes of antibiotics: S. aureus ATCC 25923, * indicates resistant (CLSI, 2020); for MICs: ATCC 25923, 18 h. The protocol: (§1) The MICs of Myr-36PW in vitro were measured through microdilution in accordance with the Clinical and Laboratory Standards Institute (CLSI, [2020]). The bacterial cells were cultured for 12 h at 37°C in the appropriate medium and then diluted to 1 × 10^6 CFU/mL. Equal volumes (100 μL) of bacterial cell suspension and two-fold serially diluted different concentrations peptides (0.0039–256 μg/mL) were added to each well of the sterile 96-well plate. The samples were incubated for 18 h at 37°C. After incubation, the MICs of the peptides were determined by evaluating the growth based on the OD600 of the cultures.

The test system of assay [2] is P. aeruginosa GIM 1.551. Format: cell-based, Pseudomonas aeruginosa. To be noted: for MICs of different classes of antibiotics: P. aeruginosa GIM 1.551, * indicates resistant (CLSI, 2020); for MICs: GIM 1.551, 18 h. The protocol: as §1
Assay [3] concerns L. monocytogenes CICC 21634. Format: cell-based, Listeria monocytogenes. The following applies: for MICs of different classes of antibiotics: L. monocytogenes CICC 21634, * indicates resistant (CLSI, 2020); for MICs: CICC 21634, 18 h. The method, then: as §1
Assay [4] relates to S. typhimurium SL 1344. It is filed as cell-based, Salmonella typhimurium. The following applies: for MICs of different classes of antibiotics: S. typhimurium SL 1344, * indicates resistant (CLSI, 2020); for MICs: SL 1344, 18 h. The protocol: as §1
Assay [5] concerns S. aureus ATCC 25923. It is filed as cell-based, Staphylococcus aureus. To be noted: ATCC 25923, 1 h. The method, then: (§2) The effects of abiotic factors on the antibacterial activity of Myr-36PW were investigated by MIC assay (Xi et al., [2013]; Zhong et al., [2019]). S. aureus ATCC 25923 and P. aeruginosa GIM 1.551 overnight cultures were diluted to 1 × 10^6 CFU/mL, and the MICs of peptides in MHB with different concentration of physiological salts (150 mM NaCL, 2 mM CaCL2) were determined. And after the peptides incubated in 10% mice serum for 1 h at 37°C, MICs of peptides against S. aureus ATCC 25923 and P. aeruginosa GIM 1.551 were determined. The MICs in MHB in the absence of physiological salts and serum were used as the control group.
(§3) Salt and serum stability in vitro were indicated by MIC assay. The concentrations of NaCl and CaCl2 were physiological concentration. 10% mice serum was inactivated by heat treatment for 15 min at 60 ℃。The control group was measured in the absence of physiological salts or serum in MHB.

For assay [6], the system named is P. aeruginosa GIM 1.551. Format: cell-based, Pseudomonas aeruginosa. The following applies: GIM 1.551, 1 h. The protocol: as §2, §3

As to `NCC[C@H](O)C(=O)N[C@@H]1C[C@H](N)[C@@H](O[C@H]2O[C@H](CN)[C@@H](O)[C@H](O)[C@H]2O)[C@H](O)[C@H]1O[C@H]1O[C@H](CO)[C@@H](O)[C@H](N)[C@H]1O` [Amikacin], the “MICs of different classes of antibiotics” value was 4 µg/mL in assay [1], >128* μg/mL in assay [2], 128* μg/mL in assay [3] and 32 µg/mL in assay [4].

Take `CC[C@H]1OC(=O)[C@H](C)[C@@H](O[C@H]2C[C@@](C)(OC)[C@@H](O)[C@H](C)O2)[C@H](C)[C@@H](O[C@@H]2O[C@H](C)C[C@H](N(C)C)[C@H]2O)[C@](C)(O)C[C@@H](C)CN(C)[C@H](C)[C@@H](O)[C@]1(C)O` [Azithromycin]: the “MICs of different classes of antibiotics” value in assay [1] is 64* μg/mL; in assay [2] it was 128* μg/mL; in assay [3], 64* μg/mL; in assay [4] it was >128* μg/mL.

On to `CNC(C)C1CCC(N)C(OC2C(N)CC(N)C(OC3OCC(C)(O)C(NC)C3O)C2O)O1` (stereo not drawn) [Gentamicin], for which the “MICs of different classes of antibiotics” value in assay [1] was 4 µg/mL; in assay [2], 128* μg/mL; in assay [3], 32* μg/mL; in assay [4], 8 µg/mL.

Turning to Colistin, the “MICs of different classes of antibiotics” value was 16* μg/mL in assay [1], 4* μg/mL in assay [2], 8 µg/mL in assay [3] and 2 µg/mL in assay [4].

On to “GRFRRLRKKTRKRLKKIGKVLKWIPPIVGSIPLGCG [PMAP-36]”, for which the “MICs, CaCl2” value in assay [5] was determined as 0.0625 µg/mL; in assay [6] it was 2 µg/mL. The results for the “MICs, NaCl” value in assay [5] and in assay [6] were 0.0625 µg/mL and 2 µg/mL, respectively. Further, the “MICs, Serum” value in assay [5] amounted to 0.0625 µg/mL; in assay [6], 2 µg/mL. Besides, the MICs in assay [1] worked out at 0.0156 µg/mL; in assay [2], 1 µg/mL; in assay [3] it was 4 µg/mL; in assay [4], 32 µg/mL. Further, in assay [6], the “MICs, Control” value amounted to 2 µg/mL.

For the molecule “GRFRRLRKKTRKRLKKIGKVLKWIWWIVGSIPLGCG [PMAP-36PW]”, the MICs in assay [1] worked out at 0.0078 µg/mL. In addition, in assay [2], the MICs came out at 0.5 µg/mL. The molecule also had an MICs in assay [3] of 2 µg/mL. Further, the MICs in assay [4] was determined as 16 µg/mL. In assay [6], the “MICs, CaCl2” value is 1 µg/mL; the “MICs, Control” value was 1 µg/mL; the “MICs, NaCl” value stood at 1 µg/mL; the “MICs, Serum” value turned out to be 1 µg/mL.

For Polymyxin B, the “MICs of different classes of antibiotics” value in assay [1] is 16* μg/mL; in assay [2], 4* μg/mL; in assay [3] it was 8 µg/mL; in assay [4], 2 µg/mL.
